Entries after “also recorded” stand apart in the source; their conditions may differ.
What was measured:
[1] = system: A. tumefaciens VirB1; experiment: Real-time RT PCR of VirB1 transcripts in agroinfiltrated leaves; assay type: in vivo, Agrobacterium tumefaciens; details: 1 mM, seven days post-treatment, Student's t-test P<0.05
Procedure: mRNA transcripts for C5-1 and A. tumefaciens virulence proteins VirB1 and VirE1 were assayed by real-time RT PCR using an ABI PRISM 7500 Fast real-time PCR apparatus, system version 2.0.1 (Applied Biosystems, Carlsbad Calif., U.S.A.). Total RNA was extracted from two 1-cm^2 leaf discs collected on the third main stem leaf (Robert et al., 2013) using the Qiagen RNeasy plant mini kit (Qiagen), following the supplier's instructions. RNA samples were treated with DNase I (Roche Diagnostics) to remove contaminant DNA and assessed for quality and quantity using a Nanodrop® ND-1000 spectrophotometer (NanoDrop Technologies, Wilmington Del., USA). First-strand cDNA was synthesized from 500 ng of total RNA using 4 units of Omniscript reverse transcriptase (Qiagen) and 1 μM of oligo-dT (15) nucleotides (Roche). PCR reactions contained 10 μl of Fast SYBR Green PCR Master Mix (Applied Biosystems), 2 μl of cDNA template, and 2.5 μl each of appropriate forward and reverse primers at 625 nM final concentration (Table 1). A no-template mixture control was included in each 96-well plate. Amplification rounds consisted of a 20-s denaturation step at 95° C., followed by 40 two-step cycles of 3 s at 95° C. and 30 s at 60° C. […]

[2] = system: cathepsin D/E-like A1 Asp proteases; experiment: Protease assay in leaf crude extracts, MOCAc substrate; assay type: in vivo, Nicotiana benthamiana; details: seven days post-treatment
[3] = system: 33-kDa pathogen-inducible PR-2 protein; experiment: 33-kDa PR-2 protein accumulation, immunodetection and densitometry; assay type: in vivo, Nicotiana benthamiana; details: non-infiltrated leaves; sprayed at 0.5 or 1 mM; ANOVA P>0.05
Excerpt: FIGS. 2a-2c show the effect of MeJA treatment on PR-2 protein accumulation, agrobacteria numbers and transcript numbers of the two A. tumefaciens virulence proteins VirB1 and VirE1 in N. benthamiana leaves. […] Immunoblot signals were quantified using the Phoretix 2-D Expression software v. 2005 (NonLinear USA) after scanning nitrocellulose membranes with a Microtek ScanMaker II digitalizer (Microtek Laboratory). Data are the mean of three leaf replicates±SE. An arbitrary value of 1.0 was assigned to PR-2 level in control healthy leaves. […] Data are expressed as log numbers of colony-forming units (CFU) on agar plates and each point is the mean of five independent (leaf replicate) values±SE. […]
Whole leaf proteins were extracted from three 1-cm^2 leaf discs in 400 μl of ice-cold 50 mM Tris-HCl, pH 7.5, containing 150 mM NaCl, by disrupting the leaf samples with tungsten carbide beads (Qiagen, Mississauga ON, Canada) in a Mini-Beadbeater apparatus (BioSpec, Bartlesville Okla., USA). […] RuBisCO small subunit was detected using polyclonal IgG raised in rabbit against a synthetic small subunit peptide (Agrisera, Vännäs, Sweden) and alkaline phosphatase-conjugated goat anti-rabbit IgG as secondary antibodies (Sigma-Aldrich). […] C5-1 light and heavy chains were detected with alkaline phosphatase-conjugated goat anti-mouse IgG antibodies (Sigma-Aldrich).

[4] = system: C5-1 antibody; experiment: C5-1 antibody immunodetection after non-reducing SDS-PAGE; assay type: in vivo, Nicotiana benthamiana; details: agroinfiltrated leaves; treated 24 h before infiltration; 35S-type C5-1 vector

CC/C=C\C[C@H]1C(=O)CC[C@@H]1CC(=O)OC [MeJA, methyl jasmonate]
VirB1 mRNA transcripts versus control leaves [1]: negatively altered; also recorded: significantly lower value
cathepsin D/E-like activity ([2]; agroinfiltrated leaves): also observed in agroinfiltrated leaves
cathepsin D/E-like activity ([2]; uninfiltrated plants, P<0.001): dose-dependent decrease
expression of 33-kDa PR-2 protein [3]: no significant effect
C5-1 protein band patterns on immunoblot compared to control plants [4]: increased intensity
